According to patent publication US20200315231A1, “CO-C[…]” (NESTES S,A,, priority 2016, published 2020):

Experiment: Water uptake behavior study in powder matrices at 33% Relative Humidity
Type: physicochemical
Settings: all samples tested (maltodextrin, skimmed milk powder, full cream milk powder, growing up milk powder), co-crystal 7.6% by weight, 22 days, versus equivalent dry-mix CaCl2.2 H2O+sucrose
Experimental: The water uptake behavior was studied for the co-crystal of Sucrose.CaCl2.4 H2O in four different powder matrices: Maltodextrin (FIG. 5), skimmed milk powder (FIG. 6), full cream milk powder with 26% fat (FIG. 7), and powdered “growing up milk” (Nestlé BEBA3) (FIG. 8). For each matrix, three different calcium containing material were mixed into the powder to simulate calcium fortification. Powders were stored in a desiccator at 33% Relative Humidity over 22 days. The water uptake was measured every 3-4 days by tracking the weight change. The water uptake is shown in FIGS. 5 to 8): powder matrix alone (♦), powder matrix with CaCl2. 2 H2O (2.1% by weight): 13.59 g of matrix+290 mg of CaCl2.2 H2O (●), powder matrix with co-crystalline Sucrose.CaCl2.4 H2O (7.6% by weight): 13.59 g of matrix+1.04 g of co-crystal (▴), and powder matrix with the equivalent dry-mix: 13.59 g of matrix+290 mg of CaCl2.2 H2O+670 mg of sucrose (▪).

## O.O.O.O.OC[C@H]1O[C@@](CO)(O[C@H]2O[C@H](CO)[C@@H](O)[C@H](O)[C@H]2O)[C@@H](O)[C@@H]1O.[Ca+2].[Cl-].[Cl-] [co-crystal, Sucrose.CaCl2.4 H2O]
  water uptake (weight change) compared with the dry mix: lower for the co-crystal than for the dry mix
